Assay results taken from ChEMBL document CHEMBL1144848, “Interaction of a cyclostreptin analogue with the microtubule taxoid site: the covalent reaction rapidly follows binding” (J Nat Prod, 2008).
Activity calls are given as the source filed them. No cut-off for these calls is given here.

Tests used:
Bos taurus [1] = organism: Bos taurus; assay: Binding affinity to bovine tubulin assessed as drug level in bound to per mole of colchicine site at <=0 degC after 60 mins by total binding assay
Bos taurus [2] = organism: Bos taurus; assay: Binding affinity to bovine tubulin assessed as drug level in bound to per mole of colchicine site at <=20 degC after 1 min by total binding assay
Bos taurus [3] = organism: Bos taurus; assay: Binding affinity to bovine tubulin assessed as drug level in bound to per mole of colchicine site at <=20 degC after 1 min by covalent binding assay
Bos taurus [4] = organism: Bos taurus; assay: Binding affinity to bovine tubulin assessed as drug level in bound to per mole of colchicine site at <=20 degC after 60 mins by total binding assay
Bos taurus [5] = organism: Bos taurus; assay: Binding affinity to bovine tubulin assessed as drug level in bound to per mole of colchicine site at <=20 degC after 60 mins by covalent binding assay
Bos taurus [6] = organism: Bos taurus; assay: Binding affinity to bovine tubulin at 5 uM in <=0 degC after 60 mins; conditions: tested as the 14C-labelled form
Bos taurus [7] = organism: Bos taurus; assay: Binding affinity to bovine tubulin at 5 uM in <=20 degC after 60 mins; conditions: tested as the 14C-labelled form
Bos taurus [8] = organism: Bos taurus; assay: Binding affinity to bovine microtubules assessed as drug level in bound to per mole taxoid site at <=0 degC after 1 min by total binding assay
Bos taurus [9] = organism: Bos taurus; assay: Binding affinity to bovine microtubules assessed as drug level in bound to per mole taxoid site at <=0 degC after 1 min by covalent binding assay
Bos taurus [10] = organism: Bos taurus; assay: Binding affinity to bovine microtubules assessed as drug level in bound to per mole taxoid site at <=0 degC after 60 mins by total binding assay
Bos taurus [11] = organism: Bos taurus; assay: Binding affinity to bovine microtubules assessed as drug level in bound to per mole taxoid site at <=0 degC after 60 mins by covalent binding assay
Bos taurus [12] = organism: Bos taurus; assay: Binding affinity to bovine microtubules assessed as drug level in bound to taxoid site at <=20 degC after 1 min by total binding assay
Bos taurus [13] = organism: Bos taurus; assay: Binding affinity to bovine microtubules assessed as drug level in bound to taxoid site at <=0 degC after 1 min by covalent binding assay
Bos taurus [14] = organism: Bos taurus; assay: Binding affinity to bovine microtubules assessed as drug level in bound to taxoid site at <=20 degC after 60 mins by total binding assay
Bos taurus [15] = organism: Bos taurus; assay: Binding affinity to bovine microtubules assessed as drug level in bound to taxoid site at <=0 degC after 60 mins by covalent binding assay
Bos taurus [16] = organism: Bos taurus; assay: Binding affinity to bovine tubulin assessed as drug level in bound to per mole of colchicine site at <=0 degC after 1 min by total binding assay
Bos taurus [17] = organism: Bos taurus; assay: Enhancement of bovine tubulin stability at <=0 degC

| stoichiometry (Bos taurus [1]) | Activity (Bos taurus [2]) | stoichiometry (Bos taurus [3]) | stoichiometry (Bos taurus [4]) | Activity (Bos taurus [5]) | Activity (Bos taurus [6]) | Activity (Bos taurus [7]) | stoichiometry (Bos taurus [8]) | Activity (Bos taurus [9]) | Activity (Bos taurus [10]) | Activity (Bos taurus [11]) | Activity (Bos taurus [12]) | Activity (Bos taurus [13]) | Activity (Bos taurus [14]) | Activity (Bos taurus [15]) | Activity (Bos taurus [16]) | Activity (Bos taurus [17]) | SMILES |
| --- | --- | --- | --- | --- | --- | --- | --- | --- | --- | --- | --- | --- | --- | --- | --- | --- | --- |
| 0.06 mol/mol | 0.6 mol/mol | 0.7 mol/mol | 0.81 mol/mol | 0.88 mol/mol | inactive | inactive | 0.14 mol/mol | 0.13 mol/mol | 0.38 mol/mol | 0.35 mol/mol | 0.53 mol/mol | 0.46 mol/mol | 0.93 mol/mol | 0.81 mol/mol | 0.01 mol/mol |  | CC(=O)O[C@H]1[C@H](C)[C@@H](O)[C@H]2[C@H]1C=C(C)[C@@H]1C[C@@H]3[C@@H](C4=C5O[C@]3(C)CC[C@H](OC4=O)[C@H]5C)[C@H]21 |
|  |  |  |  |  |  |  |  |  |  |  |  |  |  |  |  | Active | CC(=O)O[C@H]1C(=O)[C@@]2(C)[C@H]([C@H](OC(=O)c3ccccc3)[C@]3(O)C[C@H](OC(=O)[C@H](O)[C@@H](NC(=O)c4ccccc4)c4ccccc4)C(C)=C1C3(C)C)[C@]1(OC(C)=O)CO[C@@H]1C[C@@H]2O |
